Test results taken from patent US20250101041A1, “POSITIVE ALLOSTERIC MODULATORS OF THE MUSCARINIC ACETYLCHOLINE RECEPTOR M4” (Vanderbilt University, priority 2022, published 2025).

Target: T1, human mAChR M4 (Homo sapiens, UniProt P08173)
T1 construct: expressed in transfected cells; host or cells: CHO-K1 (American Type Culture Collection), stably expressing hM4 and Gqi5
T1 sequence (P08173 1-479): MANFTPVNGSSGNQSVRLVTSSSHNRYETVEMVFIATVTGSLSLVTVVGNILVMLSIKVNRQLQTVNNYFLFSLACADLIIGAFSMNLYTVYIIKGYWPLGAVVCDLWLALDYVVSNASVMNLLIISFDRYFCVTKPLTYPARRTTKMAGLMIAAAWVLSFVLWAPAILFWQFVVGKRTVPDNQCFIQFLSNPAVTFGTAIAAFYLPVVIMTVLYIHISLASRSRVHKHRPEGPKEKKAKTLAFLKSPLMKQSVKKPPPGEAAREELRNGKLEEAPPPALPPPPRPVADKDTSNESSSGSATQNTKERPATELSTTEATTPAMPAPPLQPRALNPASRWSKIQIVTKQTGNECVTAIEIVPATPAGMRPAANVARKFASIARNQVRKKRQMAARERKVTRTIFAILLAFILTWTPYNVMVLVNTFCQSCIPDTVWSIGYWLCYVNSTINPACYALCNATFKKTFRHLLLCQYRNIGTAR
Test: mAChR M4 cell-based functional assay: calcium mobilization (Fluo-4, FDSS), potentiation of EC20 acetylcholine response in hM4-Gqi5 CHO-K1 cells
Conditions: human M4; for Emax at 30 µM: CHO-K1, % ACh maximum at 30 μM; for EC50: potentiation of EC20 acetylcholine response, calcium mobilization
In short: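 CHO-K1 cells stably co-expressing human M4 and chimeric Gqi5, loaded with Fluo-4 AM (50 min, 37 °C). Compounds in 11-point 1:3 series added first; EC20 acetylcholine added at 144 s and again at 230 s. Calcium read on FDSS at 1 Hz; EC50 and Emax from four-parameter logistic fit of potentiated EC20 response.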

Structure (SMILES)	Emax at 30 µM [%]	EC50 [nM]
COCc1cc(=O)n2nc(N3CCc4ncc(-c5cnccc5OC)cc4C3)c(C)cc2n1 [Compound 1-384, 2-(methoxymethyl)-7-(3-(4-methoxypyridin-3-yl)-7,8-dihydro-1,6-naphthyridin-6(5H)-yl)-8-methyl-4H-pyrimido [1,2-b]pyridazin-4-one]	83	1030
Cc1c(N2CCc3ncc(N4CCC(F)(F)CC4)cc3C2)nn2c(=O)cc(C(F)F)nc2c1C [Compound 2-48, 2-(difluoromethyl)-7-(3-(4,4-difluoropiperidin-1-yl)-7,8-dihydro-1,6-naphthyridin-6(5H)-yl)-8,9-dimethyl-4H-pyrimido[1,2-b]pyridazin-4-one]	79	334
Cc1cc(=O)n2nc(N3CCc4ncc(-c5ccc(C(F)(F)F)nc5)cc4C3)c(C)cc2n1 [Compound 1-73, 2,8-dimethyl-7-(3-(6-(trifluoromethyl)pyridin-3-yl)-7,8-dihydro-1,6-naphthyridin-6(5H)-yl)-4H-pyrimido[1,2-b]pyridazin-4-one]	77	457
Cc1ccc(-c2cnc3c(c2)CN(c2nn4c(=O)cc(C(F)F)nc4c(C)c2C)CC3)cc1 [Compound 1-169, 2-(difluoromethyl)-8,9-dimethyl-7-(3-(p-tolyl)-7,8-dihydro-1,6-naphthyridin-6(5H)-yl)-4H-pyrimido[1,2-b]pyridazin-4-one]	89	883
COc1cc(-c2cnc3c(c2)CN(c2nn4c(=O)ccnc4cc2C)CC3)ccn1 [Compound 1-38, 7-(3-(2-methoxypyridin-4-yl)-7,8-dihydro-1,6-naphthyridin-6(5H)-yl)-8-methyl-4H-pyrimido[1,2-b]pyridazin-4-one]	84	338
Cc1cc2nccc(=O)n2nc1N1CCc2ncc(NC(=O)C3CCOCC3)cc2C1 [Compound 2-110, N-(6-(8-methyl-4-oxo-4H-pyrimido[1,2-b]pyridazin-7-yl)-5,6,7,8-tetrahydro-1,6-naphthyridin-3-yl)tetrahydro-2H-pyran-4-carboxamide]	47	2200
Cc1cc2nccc(=O)n2nc1N1CCc2ncc(-c3cn(C)nc3C(F)F)cc2C1 [Compound 1-412, 7-(3-(3-(difluoromethyl)-1-methyl-1H-pyrazol-4-yl)-7,8-dihydro-1,6-naphthyridin-6(5H)-yl)-8-methyl-4H-pyrimido [1,2-b]pyridazin-4-one]	86	352
Cc1cc2nccc(=O)n2nc1N1CCc2ncc(NCC3CCCOC3)cc2C1 (stereo not drawn) [Compound 2-86, 8-methyl-7-(3-(((tetrahydro-2H-pyran-3-yl)methyl)amino)-7,8-dihydro-1,6-naphthyridin-6(5H)-yl)-4H-pyrimido[1,2-b]pyridazin-4-one]	87	1830
COc1cccc(C2CN(c3cnc4c(c3)CN(c3nn5c(=O)ccnc5cc3C)CC4)CCO2)c1 (stereo not drawn) [Compound 2-84, 7-(3-(2-(3-methoxyphenyl)morpholino)-7,8-dihydro-1,6-naphthyridin-6(5H)-yl)-8-methyl-4H-pyrimido[1,2-b]pyridazin-4-one]	64	1910
Cc1cc2nccc(=O)n2nc1N1CCc2ncc(N3CC(C)Oc4cc(F)ccc43)cc2C1 (stereo not drawn) [Compound 2-55, 7-(3-(7-fluoro-2-methyl-2,3-dihydro-4H-benzo[b][1,4]oxazin-4-yl)-7,8-dihydro-1,6-naphthyridin-6(5H)-yl)-8-methyl-4H-pyrimido[1,2-b]pyridazin-4-one]	89	108
COc1ccsc1-c1cnc2c(c1)CN(c1nn3c(=O)cc(C)nc3cc1C)CC2 [Compound 1-298, 7-(3-(3-methoxythiophen-2-yl)-7,8-dihydro-1,6-naphthyridin-6(5H)-yl)-2,8-dimethyl-4H-pyrimido[1,2-b]pyridazin-4-one]	85	83
Cc1cc2nccc(=O)n2nc1N1CCc2ncc(-c3cnc(C)n3C)cc2C1 [Compound 1-323, 7-(3-(1,2-dimethyl-1H-imidazol-5-yl)-7,8-dihydro-1,6-naphthyridin-6(5H)-yl)-8-methyl-4H-pyrimido[1,2-b]pyridazin-4-one]	71	1040
Cc1cc2nccc(=O)n2nc1N1CCc2ncc(NCC3CC3)cc2C1 [Compound 2-89, 7-(3-((cyclopropylmethyl)amino)-7,8-dihydro-1,6-naphthyridin-6(5H)-yl)-8-methyl-4H-pyrimido[1,2-b]pyridazin-4-one]	93	332
Cc1c(N2CCc3ncc(OCCN4CCOC4=O)cc3C2)nn2c(=O)ccnc2c1C [Compound 3-4, 3-(2-((6-(8,9-Dimethyl-4-oxo-4H-pyrimido[1,2-b]pyridazin-7-yl)-5,6,7,8-tetrahydro-1,6-naphthyridin-3-yl)oxy)ethyl)oxazolidin-2-one]	54	1060
COCc1cc(=O)n2nc(N3CCc4ncc(-c5ccnc(C)c5)cc4C3)c(C)cc2n1 [Compound 1-361, 2-(methoxymethyl)-8-methyl-7-(3-(2-methylpyridin-4-yl)-7,8-dihydro-1,6-naphthyridin-6(5H)-yl)-4H-pyrimido[1,2-b] pyridazin-4-one]	82	351
[2H]C1([2H])Cc2ncc(-c3c(C)noc3C)cc2C([2H])([2H])N1c1nn2c(=O)ccnc2cc1C [Compound 1-450, 7-(3-(3,5-Dimethylisoxazol-4-yl)-7,8-dihydro-1,6-naphthyridin-6(5H)-yl-5,5,7,7-d4)-8-methyl-4H-pyrimido[1,2-b]pyridazin-4-one]	95	291
Cc1cc(=O)n2nc(N3CCc4ncc(-c5cnn(C6CCOCC6)c5)cc4C3)c(C)c(C)c2n1 [Compound 1-182, 2,8,9-trimethyl-7-(3-(1-(tetrahydro-2H-pyran-4-yl)-1H-pyrazol-4-yl)-7,8-dihydro-1,6-naphthyridin-6(5H)-yl)-4H-pyrimido[1,2-b]pyridazin-4-one]	66	1410
Cc1cc2nc(C(=O)NC3CN(CC(F)(F)F)C3)cc(=O)n2nc1N1CCc2ncc(C(F)(F)F)cc2C1 [Compound 1-55, 8-methyl-4-oxo-N-(1-(2,2,2-trifluoroethyl)azetidin-3-yl)-7-(3-(trifluoromethyl)-7,8-dihydro-1,6-naphthyridin-6(5H)-yl)-4H-pyrimido[1,2-b]pyridazine-2-carboxamide]	94	481
Cc1ccc(-c2cnc3c(c2)CN(c2nn4c(=O)ccnc4cc2C)CC3)nn1 [Compound 1-353, 8-methyl-7-(3-(6-methylpyridazin-3-yl)-7,8-dihydro-1,6-naphthyridin-6(5H)-yl)-4H-pyrimido[1,2-b] pyridazin-4-one]	55	1270
COc1ccc(-c2cnc3c(c2)CN(c2nn4c(=O)cc(C)nc4cc2C)CC3)cn1 [Compound 1-71, 7-(3-(6-methoxypyridin-3-yl)-7,8-dihydro-1,6-naphthyridin-6(5H)-yl)-2,8-dimethyl-4H-pyrimido[1,2-b]pyridazin-4-one]	90	145
COc1ncc(-c2cnc3c(c2)CN(c2nn4c(=O)cc(C(F)F)nc4c(C)c2C)CC3)cc1Cl [Compound 1-168, 7-(3-(5-chloro-6-methoxypyridin-3-yl)-7,8-dihydro-1,6-naphthyridin-6(5H)-yl)-2-(difluoromethyl)-8,9-dimethyl-4H-pyrimido[1,2-b]pyridazin-4-one]	72	2310
